Experimental data: patent US4914245A, “Culpin” (E. R. Squibb & Sons, Inc., priority 1989, dated 1990)
≈ marks a conversion by molar mass, not a printed value.

What was measured:
Format in all cases: cell-based
Streptococcus agalactiae = test: agar dilution assay (MIC) vs Streptococcus agalactiae SC 9287; details: Streptococcus agalactiae S.C. No. 9287; K-10 agar; 10^4 CFU; 37° C., 18 hours
Method: (§1) The following methodology was used to determine the minimum inhibitory concentration (hereinafter referred to as MIC) of the compounds of this invention against bacteria. The test organisms were grown in 20 ml of Antibiotic Assay Broth (Difco) by inoculating the broth (in tubes) with a loopful of the organism from a BHI (Difco) agar slant. The inoculated tubes were incubated at 37° C. for 18 to 24 hours. These cultures were assumed to contain 10^9 colony forming units (CFU) per ml. The cultures were diluted 1:100 to give a final inoculum level of 10^7 CFU; dilutions were made with Yeast Beef Broth (Difco). The test compounds were dissolved in an appropriate diluent at a concentration of 1,000 μg/ml. Two-fold dilutions were made in Yeast Beef Broth (Difco), resulting in a range from 1000 μg/ml to 0.5 μg/ml. A 1.5 ml portion of each dilution was placed into individual petri dishes to which 13.5 ml of K-10 agar was added. The composition of K-10 agar is The final drug concentration in the agar ranged from 100 μg/ml to 0.05 μg/ml. Organism growth control plates containing agar only were prepared and inoculated before and after the test plates. […] The plates were incubated at 37° C. for 18 hours and the MICs determined. […]

Micrococcus luteus = test: agar dilution assay (MIC) vs Micrococcus luteus SC 2495; details: Micrococcus luteus S.C. No. 2495; K-10 agar; 10^4 CFU; 37° C., 18 hours
Method: as §1

Candida tropicalis [1] = test: agar dilution assay (MIC) vs Candida tropicalis SC 2963; details: Candida tropicalis S.C. No. 2963; F-4 agar; 10^3 CFU
Method: (§2) The following methodology was used to determine the minimum inhibitory concentration (hereinafter referred to as MIC) of the compounds of this invention against bacteria. The test organisms were grown in 20 ml of Antibiotic Assay Broth (Difco) by inoculating the broth (in tubes) with a loopful of the organism from a BHI (Difco) agar slant. The inoculated tubes were incubated at 37° C. for 18 to 24 hours. These cultures were assumed to contain 10^9 colony forming units (CFU) per ml. The cultures were diluted 1:100 to give a final inoculum level of 10^7 CFU; dilutions were made with Yeast Beef Broth (Difco). The test compounds were dissolved in an appropriate diluent at a concentration of 1,000 μg/ml. Two-fold dilutions were made in Yeast Beef Broth (Difco), resulting in a range from 1000 μg/ml to 0.5 μg/ml. A 1.5 ml portion of each dilution was placed into individual petri dishes to which 13.5 ml of K-10 agar was added. The composition of K-10 agar is
(§3) The final drug concentration in the agar ranged from 100 μg/ml to 0.05 μg/ml. Organism growth control plates containing agar only were prepared and inoculated before and after the test plates. […]
(§4) The plates were incubated at 37° C. for 18 hours and the MICs determined. […]

Escherichia coli = test: agar dilution assay (MIC) vs Escherichia coli SC 10909; details: Escherichia coli S.C. No. 10909; K-10 agar; 10^4 CFU; 37° C., 18 hours
Method: as §1

Candida tropicalis [2] = test: agar dilution assay (MIC) vs Candida tropicalis SC 9861; details: Candida tropicalis S.C. No. 9861; F-4 agar; 10^3 CFU
Method: as §2, §3, §4

Mycobacterium fortuitum = test: agar dilution assay (MIC) vs Mycobacterium fortuitum SC 8571; details: Mycolicibacterium fortuitum; Mycobacterium fortuitum S.C. No. 8571; K-10 agar; 10^4 CFU; 37° C., 18 hours
Method: as §1

Work on C=C(C)C#Cc1cc(O)c(CC=C(C)C)cc1O [culpin, 2-(3-methyl-2-butenyl)-5-(3-methyl-3-buten-1-ynyl)-1,4-benzenediol] yielded an MIC (Streptococcus agalactiae) of 50 µg/mL (≈ 206 µM), an MIC (Micrococcus luteus) of 100 µg/mL (≈ 413 µM) and an MIC (Candida tropicalis [1]) of 50 µg/mL (≈ 206 µM). It also gave an MIC (Escherichia coli) of 100 µg/mL (≈ 413 µM), an MIC (Candida tropicalis [2]) of 50 µg/mL (≈ 206 µM) and an MIC (Mycobacterium fortuitum) of 50 µg/mL (≈ 206 µM).
